Measured values taken from article PMC6691816, “Discovery of aminopyridine-containing spiro derivatives as EGFR mutations inhibitors” (Journal of Enzyme Inhibition and Medicinal Chemistry, 2019).

Legend:
Format in all cases: biochemical
EGF-R d752-759 = EGF-R d752-759 (Homo sapiens, UniProt P00533, DEL752-759); test: Radiometric protein kinase IC50 assay (33PanQinase)
Experimental: (§1) The compounds were serially diluted in semi-log steps with 100% DMSO in a 96 well microtiter plate. The concentration range of this serial dilution was 1 × 10^−3 M to 3 × 10^−8 M. Directly before use the test compounds were further diluted 1:10 with water, resulting in a concentration range from 1 × 10^−4 M to 3 × 1 0^−9 M in 10% DMSO. For the assays, 5 μL from each concentration were transferred into the assay. The final volume of the assay was 50 μL. The compounds were tested at 10 final assay concentrations in the range from 1 × 10^−5 M to 3 × 10^−10 M. The final DMSO concentration in the reaction cocktails was 1% in all cases.
(§2) A radiometric protein kinase assay (33PanQinase® Activity Assay) was used for measuring the kinase activity of the 9 protein kinases. All kinase assays were performed in 96-well FlashPlatesTM from Perkin Elmer (Boston, MA, USA) in a 50 μL reaction volume. The reaction cocktail was pipetted in 4 steps in the following order: 10 μL of non-radioactive ATP solution (in H2O), 25 μL of assay buffer/[γ-33P]-ATP mixture, 5 μL of test sample in 10% DMSO, 10 μL of enzyme/substrate mixture. The assay for all protein kinases contained 70 mM HEPES-NaOH pH 7.5, 3 mM MgCl2, 3 mM MnCl2, 3 μM Na-orthovanadate, 1.2 mM DTT, ATP, [γ-33P]-ATP, protein kinase, and substrate.The reaction cocktails were incubated at 30 °C for 60 min. The reaction was stopped with 50 μL of 2% (v/v) H3PO4, plates were aspirated and washed two times with 200 μL 0.9% (w/v) NaCl. Incorporation of 33Pi (counting of “cpm”) was determined with a microplate scintillation counter (Microbeta, Wallac). All assays were performed with a BeckmanCoulter Biomek 2000/SL robotic system.
(§3) For each kinase, the median value of the cpm of three wells with complete reaction cocktails, but without kinase, was defined as “low control” (n = 3). This value reflects unspecific binding of radioactivity to the plate in the absence of protein kinase but in the presence of the substrate. Additionally, for each kinase the median value of the cpm of three other wells with the complete reaction cocktail, but without any compound, was taken as the “high control”, i.e. full activity in the absence of any inhibitor (n = 3). The difference between high and low control was taken as 100% activity for each kinase. As part of the data evaluation the low control value of each kinase was subtracted from the high control value as well as from their corresponding “compound values”. The residual activity (in %) for each compound well was calculated by using the following formula: Res. Activity (%) = 100 × [(cpm of compound – low control)/(high control – low control)]
(§4) Based on each 10 corresponding residual activities, IC50 values were calculated using Prism 5.04 for Windows. The mathematical model used was “Sigmoidal response (variable slope)” with parameters “top” fixed at 100% and “bottom” at 0%. The fitting method used was a least-squares fit.

EGF-R wt [1] = molecular target: T1, EGF-R wt (Homo sapiens, UniProt P00533); test: as above; details: for biochemical activity on EGFR wt compared with neratinib: not more than that of neratinib
T1 construct: purchased ProQinase GmbH
T1 sequence (P00533 25-1210): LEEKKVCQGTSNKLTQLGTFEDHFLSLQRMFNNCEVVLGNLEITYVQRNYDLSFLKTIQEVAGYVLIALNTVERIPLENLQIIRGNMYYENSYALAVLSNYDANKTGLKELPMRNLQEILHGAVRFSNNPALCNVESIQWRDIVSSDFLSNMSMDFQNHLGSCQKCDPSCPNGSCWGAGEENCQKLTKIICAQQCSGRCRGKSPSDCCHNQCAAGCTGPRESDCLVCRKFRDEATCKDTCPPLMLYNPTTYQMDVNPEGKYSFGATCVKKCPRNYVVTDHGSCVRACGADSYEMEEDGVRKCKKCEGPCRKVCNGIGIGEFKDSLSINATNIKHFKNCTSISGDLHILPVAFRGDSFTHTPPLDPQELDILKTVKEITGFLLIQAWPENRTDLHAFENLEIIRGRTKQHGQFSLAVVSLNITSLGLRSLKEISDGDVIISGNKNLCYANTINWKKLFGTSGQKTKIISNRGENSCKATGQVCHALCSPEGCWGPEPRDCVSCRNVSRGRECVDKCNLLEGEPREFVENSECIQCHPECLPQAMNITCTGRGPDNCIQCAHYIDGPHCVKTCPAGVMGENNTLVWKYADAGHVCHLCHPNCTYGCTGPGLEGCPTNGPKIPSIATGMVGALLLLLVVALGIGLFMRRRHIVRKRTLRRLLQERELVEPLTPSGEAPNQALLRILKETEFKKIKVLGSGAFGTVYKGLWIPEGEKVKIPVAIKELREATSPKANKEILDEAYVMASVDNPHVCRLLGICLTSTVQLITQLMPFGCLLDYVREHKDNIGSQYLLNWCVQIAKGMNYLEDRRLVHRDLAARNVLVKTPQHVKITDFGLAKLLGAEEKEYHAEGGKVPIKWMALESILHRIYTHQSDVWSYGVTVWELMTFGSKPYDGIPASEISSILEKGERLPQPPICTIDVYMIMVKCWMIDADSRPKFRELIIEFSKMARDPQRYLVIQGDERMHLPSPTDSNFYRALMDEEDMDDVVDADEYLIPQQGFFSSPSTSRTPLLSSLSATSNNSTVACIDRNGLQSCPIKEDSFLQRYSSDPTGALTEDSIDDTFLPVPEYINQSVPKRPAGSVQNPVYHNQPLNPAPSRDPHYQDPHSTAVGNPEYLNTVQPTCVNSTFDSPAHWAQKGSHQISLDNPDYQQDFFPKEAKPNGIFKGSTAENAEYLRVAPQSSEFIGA
Experimental: as §1, §2, §3, §4

EGF-R T790M/L858R = EGF-R T790M/L858R (Homo sapiens, UniProt P00533, L858R/T790M); test: as above; details: for inhibitory activity on EGFR mutant containing both T790M and L858R, times stronger than neratinib: ratio of IC50 values to neratinib
Chain of EGF-R T790M/L858R (P00533 25-1210 T790M/L858R): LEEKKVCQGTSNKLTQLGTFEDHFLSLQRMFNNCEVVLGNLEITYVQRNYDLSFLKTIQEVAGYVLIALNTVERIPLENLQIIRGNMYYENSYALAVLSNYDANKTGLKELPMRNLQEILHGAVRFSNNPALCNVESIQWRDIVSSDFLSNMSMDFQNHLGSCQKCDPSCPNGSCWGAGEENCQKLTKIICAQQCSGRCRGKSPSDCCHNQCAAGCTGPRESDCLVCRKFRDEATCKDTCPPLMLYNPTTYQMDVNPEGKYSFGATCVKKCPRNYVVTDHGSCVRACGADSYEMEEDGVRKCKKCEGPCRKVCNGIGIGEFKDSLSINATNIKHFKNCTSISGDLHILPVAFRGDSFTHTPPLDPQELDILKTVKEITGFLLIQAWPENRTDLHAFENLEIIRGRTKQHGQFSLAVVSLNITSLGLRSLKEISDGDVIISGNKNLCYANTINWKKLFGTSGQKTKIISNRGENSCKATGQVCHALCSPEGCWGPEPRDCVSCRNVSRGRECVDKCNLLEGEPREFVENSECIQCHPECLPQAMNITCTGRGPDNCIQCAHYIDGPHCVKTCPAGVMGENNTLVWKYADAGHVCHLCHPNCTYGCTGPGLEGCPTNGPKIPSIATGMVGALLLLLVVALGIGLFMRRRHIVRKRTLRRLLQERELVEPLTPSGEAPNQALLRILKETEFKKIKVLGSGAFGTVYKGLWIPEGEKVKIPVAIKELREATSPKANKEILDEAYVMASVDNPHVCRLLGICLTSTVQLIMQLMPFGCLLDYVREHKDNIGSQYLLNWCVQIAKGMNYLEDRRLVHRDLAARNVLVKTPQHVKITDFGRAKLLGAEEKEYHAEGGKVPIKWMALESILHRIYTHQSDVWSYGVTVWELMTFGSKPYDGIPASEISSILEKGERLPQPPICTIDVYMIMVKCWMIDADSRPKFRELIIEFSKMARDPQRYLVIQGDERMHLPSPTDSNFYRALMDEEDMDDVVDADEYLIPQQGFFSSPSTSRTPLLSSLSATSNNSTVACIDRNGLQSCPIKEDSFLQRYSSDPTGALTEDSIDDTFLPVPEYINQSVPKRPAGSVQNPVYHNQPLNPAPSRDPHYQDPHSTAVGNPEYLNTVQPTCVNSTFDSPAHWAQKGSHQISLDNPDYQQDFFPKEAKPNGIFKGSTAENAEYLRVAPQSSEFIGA
Experimental: as §1, §2, §3, §4

HER2 [2] = molecular target: T2, HER2 (Homo sapiens, UniProt P04626); test: as above
T2 construct: purchased ProQinase GmbH
T2 sequence (P04626 23-1255): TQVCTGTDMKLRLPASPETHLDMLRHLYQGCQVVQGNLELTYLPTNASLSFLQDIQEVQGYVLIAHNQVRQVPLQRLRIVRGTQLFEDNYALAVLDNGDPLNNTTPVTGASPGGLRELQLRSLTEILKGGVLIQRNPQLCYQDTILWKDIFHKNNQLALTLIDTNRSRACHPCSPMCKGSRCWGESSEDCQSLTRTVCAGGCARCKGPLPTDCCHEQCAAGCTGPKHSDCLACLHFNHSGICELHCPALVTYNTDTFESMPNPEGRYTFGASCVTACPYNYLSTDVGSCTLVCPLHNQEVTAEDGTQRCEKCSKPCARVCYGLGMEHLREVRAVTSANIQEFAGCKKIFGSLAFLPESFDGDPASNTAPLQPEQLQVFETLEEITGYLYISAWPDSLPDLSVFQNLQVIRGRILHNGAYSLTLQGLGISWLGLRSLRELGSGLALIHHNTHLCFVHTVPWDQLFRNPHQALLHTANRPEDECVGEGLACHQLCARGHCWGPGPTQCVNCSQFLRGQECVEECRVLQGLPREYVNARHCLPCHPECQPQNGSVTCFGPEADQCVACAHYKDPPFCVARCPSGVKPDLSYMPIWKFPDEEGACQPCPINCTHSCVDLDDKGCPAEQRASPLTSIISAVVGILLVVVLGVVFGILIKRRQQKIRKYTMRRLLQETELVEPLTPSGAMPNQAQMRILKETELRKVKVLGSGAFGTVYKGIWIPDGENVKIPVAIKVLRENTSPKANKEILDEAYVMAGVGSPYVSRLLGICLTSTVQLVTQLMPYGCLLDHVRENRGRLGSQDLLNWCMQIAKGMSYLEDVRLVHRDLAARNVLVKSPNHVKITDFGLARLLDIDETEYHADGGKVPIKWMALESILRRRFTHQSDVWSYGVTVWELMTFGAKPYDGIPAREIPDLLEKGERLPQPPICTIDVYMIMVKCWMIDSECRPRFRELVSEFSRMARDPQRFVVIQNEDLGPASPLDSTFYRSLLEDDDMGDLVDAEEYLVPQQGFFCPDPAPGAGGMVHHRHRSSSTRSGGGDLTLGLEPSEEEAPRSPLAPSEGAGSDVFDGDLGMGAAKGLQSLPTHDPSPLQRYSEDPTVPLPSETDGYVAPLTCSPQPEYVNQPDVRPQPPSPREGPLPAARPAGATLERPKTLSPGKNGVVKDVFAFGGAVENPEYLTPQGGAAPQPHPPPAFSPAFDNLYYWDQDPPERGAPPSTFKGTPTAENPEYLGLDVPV
Experimental: as §1, §2, §3, §4

EGF-R d747-749/A750P = EGF-R d747-749/A750P (Homo sapiens, UniProt P00533, A750P/DEL747-749); test: as above
Chain of EGF-R d747-749/A750P (P00533 with tags, fused parts or gaps DEL747-749/A750P limits assumed): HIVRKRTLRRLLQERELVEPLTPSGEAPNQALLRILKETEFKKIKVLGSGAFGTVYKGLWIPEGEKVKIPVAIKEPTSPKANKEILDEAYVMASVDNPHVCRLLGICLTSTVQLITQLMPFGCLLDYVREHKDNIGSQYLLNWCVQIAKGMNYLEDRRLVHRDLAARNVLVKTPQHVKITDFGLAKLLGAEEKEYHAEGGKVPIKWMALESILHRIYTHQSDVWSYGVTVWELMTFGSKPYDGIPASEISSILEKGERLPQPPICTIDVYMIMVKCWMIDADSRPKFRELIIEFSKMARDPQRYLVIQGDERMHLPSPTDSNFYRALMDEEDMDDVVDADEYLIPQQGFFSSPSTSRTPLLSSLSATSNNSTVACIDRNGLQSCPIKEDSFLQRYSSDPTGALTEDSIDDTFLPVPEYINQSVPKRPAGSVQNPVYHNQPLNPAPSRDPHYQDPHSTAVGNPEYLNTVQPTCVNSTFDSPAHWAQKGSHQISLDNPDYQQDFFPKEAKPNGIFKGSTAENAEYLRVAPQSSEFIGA
Experimental: as §1, §2, §3, §4

EGF-R T790M = EGF-R T790M (Homo sapiens, UniProt P00533, T790M); test: as above
Experimental: as §1, §2, §3, §4

EGF-R G719S = EGF-R G719S (Homo sapiens, UniProt P00533, G719S); test: as above
Experimental: as §1, §2, §3, §4

EGF-R L861Q = EGF-R L861Q (Homo sapiens, UniProt P00533, L861Q); test: as above
Experimental: as §1, §2, §3, §4

EGF-R L858R = EGF-R L858R (Homo sapiens, UniProt P00533, L858R); test: as above
Experimental: as §1, §2, §3, §4

EGF-R wt [3] = molecular target: T1, EGF-R wt; test: EGFR-wt protein kinase assay (33PanQinase), single concentration; details: 0.5 μM (5 × 10^−7 M), singlicate, % of control activity; read-out: Residual activity under 0.5 μM drug concentration (%) EGF-R wt
Experimental: (§5) The inhibitory profile of 16 compounds was determined using two protein kinases. The compounds were tested at a concentration of 5 × 1 0^−7 M, in singlicate. The compounds were solved and diluted to 5 × 10^−5 M stock solutions in 100% DMSO according to the customer-filled CSF. 10 μL of each of the stock solutions were transferred into […] of a 96-well, Column 1 and 2 of the plate were filled with 10 μL100% DMSO. The plate is in the following referred to as “copy plate”. In the process, 90 μL H2O were added to each well of the copy plate. To minimize potential compound precipitation, the H2O was added to each well only a few minutes before the transfer of the compound solutions into the assay plates. The plate was shaken thoroughly, resulting in a “compound dilution plate” with a compound concentration of 5 × 10^−6 M/10% DMSO. This plate was used for the transfer of 5 μL compound solution into the assay plates. The final volume of the assay was 50 μL. All compounds were tested at 5 × 1 0^−7 M in singlicate. The final DMSO concentration in the reaction cocktails was 1% in all cases. The compound dilution plate was disposed.
(§6) A radiometric protein kinase assay (33PanQinase® Activity Assay) was used for measuring the kinase activity of the two protein kinases. All kinase assays were performed in 96-well FlashPlatesTM from PerkinElmer (Boston, MA, USA) in a 50 μL reaction volume. The reaction cocktail was pipetted in 4 steps in the following order: 20 μL of assay buffer, 5 μL of ATP solution (in H2O), 5 μL of test compound (in 10% DMSO), 20 μL enzyme/subtrate mix. The assay for both protein kinases contained 70 mM HEPES-NaOH pH 7.5, 3 mM MgCl2, 3 mM MnCl2, 3 μM Na-orthovanadate, 1.2 mM DTT, ATP. The assay for ERBB2 additionally contained 50 μg/mLPEG20000. The reaction cocktails were incubated at 30 °C for 60 min. The reaction was stopped with 50 μL of 2% (v/v) H3PO4, plates were aspirated and washed two times with 200 μL 0.9% (w/v) NaCl. Incorporation of 33Pi was determined with a microplate scintillation counter (Microbeta, Wallac). All assays were performed with a BeckmanCoulter/SAGIAN™Core System. The median value of the counts in column 1 (n = 8) of each assay plate was defined as “low control”. This value reflects unspecific binding of radioactivity to the plate in the absence of a protein kinase but in the presence of the substrate. The median value of the counts in column 2 of each assay plate (n = 8) was taken as the “high control”. As part of the data evaluation the low control value from a particular plate was subtracted from the high control value as well as from all 80 “compound values” of the corresponding plate. The residual activity (in %) for each well of a particular plate was calculated by using the following formula: Res. Activity (%) = 100 × [(cpm of compound – low control)/(high control − low control)]

HER2 [4] = molecular target: T2, HER2; test: HER2 protein kinase assay (33PanQinase), single concentration; details: 0.5 μM (5 × 10^−7 M), singlicate, % of control activity; read-out: Residual activity under 0.5 μM drug concentration (%) HER2
Experimental: as §5, §6

Chain of EGF-R d752-759 (P00533 with tags, fused parts or gaps DEL752-759 limits assumed): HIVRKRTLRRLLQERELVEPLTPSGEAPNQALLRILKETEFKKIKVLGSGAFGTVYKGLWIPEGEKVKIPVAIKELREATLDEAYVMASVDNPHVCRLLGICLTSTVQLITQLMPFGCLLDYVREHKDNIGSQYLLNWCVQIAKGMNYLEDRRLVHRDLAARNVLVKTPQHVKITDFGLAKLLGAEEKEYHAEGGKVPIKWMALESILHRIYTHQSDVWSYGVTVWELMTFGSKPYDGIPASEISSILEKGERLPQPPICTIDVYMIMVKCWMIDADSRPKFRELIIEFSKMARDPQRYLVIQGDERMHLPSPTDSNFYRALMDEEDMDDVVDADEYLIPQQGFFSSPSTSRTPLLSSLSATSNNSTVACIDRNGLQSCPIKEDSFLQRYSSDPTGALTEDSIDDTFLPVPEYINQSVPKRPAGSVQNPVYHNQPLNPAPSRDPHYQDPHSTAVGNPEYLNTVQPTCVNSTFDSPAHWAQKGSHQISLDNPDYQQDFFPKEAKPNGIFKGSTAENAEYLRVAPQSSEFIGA

For C=CC(=O)N1CC2(CCN(C)CC2)c2cc(OC)c(Nc3ncc(C#N)c(Nc4ccc(OCc5ccccn5)cc4)n3)cc21 [Compound A1, 2-{[5-methoxy-1′-methyl-1-(prop-2-enoyl)-1,2-dihydrospiro[indole-3,4′ -piperidine]-6-yl]amino}-4-{[4-(pyridin-2-ylmethoxy)phenyl]amino}pyrimidine-5-carbonitrile], the IC50 (EGF-R d752-759) was 210 nM, the IC50 (EGF-R wt [1]) was 61 nM and the “biochemical activity on EGFR wt compared with neratinib” value (EGF-R wt [1]) was “within five times”. The IC50 (EGF-R T790M/L858R) was 90 nM, the “inhibitory activity on EGFR mutant containing both T790M and L858R, times stronger than neratinib” value (EGF-R T790M/L858R) was 31 times and the IC50 (HER2 [2]) was 260 nM. The IC50 (EGF-R d747-749/A750P) was 53 nM, the IC50 (EGF-R T790M) was 89 nM and the IC50 (EGF-R G719S) was 200 nM. For the same compound, the IC50 (EGF-R L861Q) was 76 nM, the IC50 (EGF-R L858R) was 86 nM and the remaining activity at 0.5 µM (EGF-R wt [3]) was 7%. It also gave a remaining activity at 0.5 µM (HER2 [4]) of 9%.

In the case of C=CC(=O)N1CC2(CCN(C)CC2)c2cc(OC)c(Nc3ncc(C#N)c(Nc4ccc(OCc5ccccn5)c(Cl)c4)n3)cc21 [Compound A2, 4-{[3-chloro-4-(pyridin-2-ylmethoxy)phenyl]amino}-2-{[5-methoxy-1′-methyl-1-(prop-2-enoyl)-1,2-dihydrospiro[indole-3,4′-piperidine]-6-yl]amino}pyrimidine-5-carbonitrile], the IC50 (EGF-R d752-759) is reported as 200 nM, the IC50 (EGF-R wt [1]) is reported as 59 nM and the “biochemical activity on EGFR wt compared with neratinib” value (EGF-R wt [1]) is reported as “within five times”. For the same compound, the IC50 (EGF-R T790M/L858R) was 80 nM, the “inhibitory activity on EGFR mutant containing both T790M and L858R, times stronger than neratinib” value (EGF-R T790M/L858R) was 31 times and the IC50 (HER2 [2]) was 310 nM. For the same compound, the IC50 (EGF-R d747-749/A750P) was 54 nM, the IC50 (EGF-R T790M) was 130 nM and the IC50 (EGF-R G719S) was 240 nM. For the same compound, the IC50 (EGF-R L861Q) was 81 nM, the IC50 (EGF-R L858R) was 81 nM and the remaining activity at 0.5 µM (EGF-R wt [3]) was 6%. The remaining activity at 0.5 µM (HER2 [4]) was 5%.
